Source: patent US8597904B2, “Pharmaceutical compositions for the treatment of conditions responsive to proteasome inhibition” (priority 2007, dated 2013)
Read-outs that look alike come from different tables or passages of the source.

How the values were obtained:
Akt/PKB = assay: Western blot of Akt/PKB and phosphorylation at Ser473 in SK-N-SH cells; assay type: cell-based, human
Method: Since Akt/PKB is a well-characterized anti-apoptotic protein, total Akt/PKB levels were measured in treated cells in addition to determining the protein's phosphorylation status at residue Ser473, which is indicative of its activity. SK-N-SH cells were treated with GlbA in the presence or absence of 3-MA, and cell lysates were analyzed for Akt/PKB.

SK-N-SH cells [1] = assay: microscopy of treated SK-N-SH cells for membrane blebbing; assay type: cell-based, human
[2] = target: T1, proteasome activity in SKOV3 ovarian cancer cells (Homo sapiens, UniProt P28074); assay: Proteasome-Glo cell-based luminescent assay
T1 construct: in vivo proteasome activity in SK-N-SH neuroblastoma cells and SKOV3 human ovarian cancer cells; endogenous in cells; host or cells: SKOV3
T1 sequence (P28074 60-263): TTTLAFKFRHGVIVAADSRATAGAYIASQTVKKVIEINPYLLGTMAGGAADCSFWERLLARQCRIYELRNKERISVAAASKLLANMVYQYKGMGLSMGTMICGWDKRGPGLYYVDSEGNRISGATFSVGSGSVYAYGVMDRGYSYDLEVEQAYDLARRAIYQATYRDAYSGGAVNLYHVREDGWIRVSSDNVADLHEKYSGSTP
Method: Syringolin A was tested as a proteasome inhibitor in vivo in cultured mammalian cancer cells. Inhibition of proteasome activity in human SK-N-SH neuroblastoma cells was measured using the Proteasome-Glo™ cell-based luminescent assay (Promega) in solid white 96-well microtiter cell culture plates. Ten μl of syringolin A (at various concentrations) was added to each well containing SK-N-SH cells (plated at a concentration of 1.0×10^5 cells/ml in 90 μl well volumes 24 hours prior) and a negative control and media only control were included. Cells were incubated with 1-100 μM syringolin A for 2 hours or 24 hours, and then equilibrated to room temperature for 15 minutes before 100 μl of Proteasome-Glo reagent (containing bioluminescent substrate Suc-LLVY-aminoluciferin) was added to the cells. Luminescence (indicated as relative luminescence units [RLU]) was read after 15-30 minutes on a Dynex MLX Luminometer.
The cell culture-based proteasome inhibition assay was performed as previously described (Groll et al. 2008. Nature 452:755-758, which is incorporated herein by reference in its entirety). Briefly, wells of white-walled 96-well microtiter cell culture plates were seeded at a density of 1×10^4 cells/well (SK-N-SH) or 5×10^3 cells/well (SKOV3) in 90 μl. After 24 hours, 10 μl GlbA or SylA were added at increasing concentrations (0-100 μM) and incubated for 2 hours. […] Cell Death Differ 9:1017-1025; Meng, et al. 1999. PNAS 96:10403-10408, each of which is incorporated herein by reference in its entirety) were used as positive and negative controls, respectively. Microtiter plates were then equilibrated to room temperature for 15 min before adding 100 μl of proteasome Glo™ reagent (containing bioluminescent substrate Suc-LLVY-aminoluciferin) per well. Luminescence was measured on a Dynex MLX luminometer, according to the manufacturer's instructions (Promega).

Rat-1 fibroblasts cells = assay: sulphorhodamine B (SRB) cell viability / proliferation assay; assay type: cell-based
Method: To then test the effects of syringolin A on proliferation, cells at 0.25-0.5×10^5 cells per ml were seeded in 96-well microtiter plates containing 100 μl of culture medium per well. After 24 hours, syringolin A was added to wells to a final concentration of 0.5 μm to 100 μm. Syringolin was not added to parallel samples of control cells. Cells were incubated for 48 hours, photographed, and the viability of cells (calculated as a percentage of control cell counts) was determined using the sulphorhodamine B (SRB) assay as previously reported (Skehan, et al. 1990. J. Natl. Cancer Inst. 82:1107-1112, which is incorporated herein by reference in its entirety). In brief, cell culture medium was removed from the microtiter plate and adherent cells were fixed with 10% (w/v) trichloracetic acid (TCA) for 30 minutes at room temperature. Following four washes with tap water, 100 μl of SRB (Sigma Chemical Co., St. Louis, Mo.) (0.4 g/100 ml 1% [v/v] glacial acetic acid in water) was added and the plate was then incubated for 30 minutes at room temperature, and rinsed four times with 3% (v/v) glacial acetic acid. […] The absorption at a wavelength of 560 nm was read using an HTS 7000 Plus Bioassay Reader or a Victor 3, 1420 Multilabel Counter (PerkinElmer, Inc. Boston, Mass.). […]

SKOV3 cells = details: values from previous studies with SylA (Coleman et al. 2006); cited from earlier work
SK-N-SH cells [3] = details: values from previous studies with SylA (Coleman et al. 2006); cited from earlier work

Row | SMILES | Akt/PKB phosphorylation at Ser473 (Akt/PKB; GlbA treatment) | total Akt/PKB levels (Akt/PKB; GlbA treatment) | Akt/PKB phosphorylation at Ser473 after pre-treatment with 3-MA (Akt/PKB; GlbA with 3-MA pre-treatment) | membrane blebbing / apoptotic effects by microscopy (SK-N-SH cells [1]) | IC50 ([2]; SKOV3, 2 hours, read-out: IC50 of proteasomal activity) [µM] | potency of GlbA relative to SylA ([2]; SKOV3, ratio of IC50) | cell morphology (Rat-1 fibroblasts cells; Rat-1, 25 μM, no detachment or floating cells) | cell proliferation rate (Rat-1 fibroblasts cells; Rat-1, dose-dependent) | EC50 (SKOV3 cells) [µM] | EC50 (SK-N-SH cells [3]) [µM] | IC50 [2] [µM] | proteasome activity in cells ([2]; SKOV3, 2 hours incubation, listed as SylA)
1 | CCCCCCC/C=C/C=C/C(=O)N[C@H](C(=O)N[C@H]1C[C@@H](O)CCNC(=O)/C=C/[C@H](C)NC1=O)[C@@H](C)O [glidobactin A] | phosphorylated at Ser473 | slight decrease | prevented | presence of membrane blebbing | 0.25 | approximately 16 fold |  |  |  |  |  | 
2 | CC(C)[C@H](NC(=O)N[C@H](C(=O)N[C@H]1/C=C/CCNC(=O)/C=C/[C@H](C(C)C)NC1=O)C(C)C)C(=O)O [syringolin A] |  |  |  |  |  |  | affected the cell morphology | reduced the cell proliferation rate | ~20 | ~20 | 4.03 | dose-dependent manner
